Results: patent US20220096449A1, “METHOD OF TREATMENT WITH TRADIPITANT” (Vanda Pharmaceuticals Inc., priority 2018, published 2022)

Experiments:
NK-1 receptor = target: T1, NK-1 receptor (Cavia porcellus, UniProt P30547); test: GR73632-induced vocalization in guinea pigs; format: in vivo, guinea pig
T1 construct: from tissue; host or cells: living guinea pigs (central NK-1 receptors)
Protocol: Male Dunkin/Hartley guinea pigs (200 to 250 grams) are orally administered either vehicle or an NK-1 antagonist. Approximately 45 minutes later (for dose response studies), the animals are anesthetized and 0.1 nmol of GR73632 (SP analog) in a vehicle volume of 5 μl is injected into the cerebral ventricle at the intersection of bregma and the midline of the skull. Animals are placed in a dark testing chamber located inside of a sound attenuation cubicle and vocalizations are recorded for 30 minutes following recovery from anesthesia. The time spent vocalizing is quantified for each animal. In the duration of action study, 0.1 mg/kg of tradipitant or vehicle solution is administered orally and then 2, 4, or 7 hours later, 0.1 nmol of GR73632 is administered into the cerebral ventricle as described above. Vocalizations are recorded and quantified as indicated above. Vehicle solutions are either CMC (FIG. 4 data) or an ethanol/emulphor solution (FIGS. 5 and 6). Data is analyzed using one-tailed t-tests.

NK-3 receptor = target: T2, NK-3 receptor (Homo sapiens, UniProt P29371); test: NK-3 receptor inhibition; format: binding
T2 sequence (P29371 1-465): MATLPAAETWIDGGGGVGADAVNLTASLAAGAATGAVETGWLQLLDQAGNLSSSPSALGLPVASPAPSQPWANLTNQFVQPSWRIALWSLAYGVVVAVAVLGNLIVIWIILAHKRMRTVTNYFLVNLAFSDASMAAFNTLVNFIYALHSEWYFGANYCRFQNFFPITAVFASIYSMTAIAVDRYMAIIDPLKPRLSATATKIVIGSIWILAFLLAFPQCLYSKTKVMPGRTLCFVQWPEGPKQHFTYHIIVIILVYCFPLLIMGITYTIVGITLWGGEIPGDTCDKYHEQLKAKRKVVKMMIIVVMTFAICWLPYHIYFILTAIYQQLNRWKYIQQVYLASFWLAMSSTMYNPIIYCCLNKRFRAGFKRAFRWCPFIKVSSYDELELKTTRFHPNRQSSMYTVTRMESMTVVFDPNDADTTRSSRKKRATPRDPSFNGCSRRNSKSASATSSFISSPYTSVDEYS

[1] = tested on: patients with idiopathic and diabetic gastroparesis; test: Phase II study VLY-686-2301, double blind randomized portion (Example 5); format: in vivo, human; details: for CGI-S, change from baseline / DD-% Nausea Free Days, change from baseline / DD-Nausea (Daily Diary Nausea Score, 0-5), change from baseline / GCSI, change from baseline / PAGI-SYM, change from baseline / PGI-C: 4 weeks; for Daily Diary Nausea Weekly Average, Effect size estimate: tradipitant treatment arm
Text: In a phase II study of tradipitant in patients with idiopathic and diabetic gastroparesis, participants enter a 4 week screening period prior to treatment with tradipitant, during which they answer a daily symptom questionnaire rating their nausea severity on a scale of 0 to 5, in which 0 represents no nausea, 1 represents very mild nausea, 2 represents mild nausea, 3 represents moderate nausea, 4 represents severe nausea, and 5 represents very severe nausea. After the 4 week screening period, 141 gastroparesis patients in an Intent to Treat (ITT) population enter the 4 week double blind randomized portion of the study, in which they receive either tradipitant 85 mg bid, or placebo. Several symptom severity scales are used to assess gastroparesis symptoms, including the […] (GCSI), Patients Assessment of Upper Gastrointestinal Disorders-Symptoms (PAGI-SYM), and Patient Global Impression of Change (PGI-C), as well as a Clinician Global Impression of Severity (CGI-S). After 4 weeks of blinded study drug treatment, patients have the opportunity to enter an additional 8 week open label extension, during which each subject receives tradipitant 85 mg bid.
Abbreviations used in Table 6 include: Daily Diary Nausea Score, 0-5 (DD-Nausea); Daily Diary Nausea Free Days, percent 0-100 (DD-% Nausea Free Days); Intent to Treat (ITT); Gastroparesis Cardinal Symptom Index (GCSI); Patient Assessment of Gastrointestinal Disorders-Symptoms (PAGI-SYM); Clinician Global Impression of Severity (CGI-S); Patient Global Impression of Change (PGI-C). For DD-Nausea, DD-% Nausea Free Days, GCSI, PAGI-SYM and CGI-S, the values shown are changes from baseline.

[2] = tested on: patients with gastroparesis; test: Phase II gastroparesis study, open label extension (Example 4); format: in vivo, human
Text: In a phase II study of tradipitant in patients with gastroparesis, participants initially enter 4 week screening period prior to treatment with tradipitant, during which they answer a daily symptom questionnaire rating their nausea severity on a scale of 0 to 5, in which 0 represents no nausea, 1 represents very mild nausea, 2 represents mild nausea, 3 represents moderate nausea, 4 represents severe nausea, and 5 represents very severe nausea. After the 4 week screening period, patients enter the double blind randomized portion of the study, in which they receive either tradipitant 85 mg bid, or placebo. After 4 weeks of blinded study drug treatment, patients have the opportunity to enter an additional 8 week open label extension, during which each subject receives tradipitant 85 mg bid. 64 subjects participate in at least one week of the open label tradipitant dosing portion of the study. The average daily diarized nausea scores are reported for subjects during the 4 week screening period and during the up to 8 week open label extension.

[3] = ITT Population, 85 mg bid, n = 73
[4] = Vomiting Population, 85 mg bid, n = 58

T1 sequence (P30547 whole entry): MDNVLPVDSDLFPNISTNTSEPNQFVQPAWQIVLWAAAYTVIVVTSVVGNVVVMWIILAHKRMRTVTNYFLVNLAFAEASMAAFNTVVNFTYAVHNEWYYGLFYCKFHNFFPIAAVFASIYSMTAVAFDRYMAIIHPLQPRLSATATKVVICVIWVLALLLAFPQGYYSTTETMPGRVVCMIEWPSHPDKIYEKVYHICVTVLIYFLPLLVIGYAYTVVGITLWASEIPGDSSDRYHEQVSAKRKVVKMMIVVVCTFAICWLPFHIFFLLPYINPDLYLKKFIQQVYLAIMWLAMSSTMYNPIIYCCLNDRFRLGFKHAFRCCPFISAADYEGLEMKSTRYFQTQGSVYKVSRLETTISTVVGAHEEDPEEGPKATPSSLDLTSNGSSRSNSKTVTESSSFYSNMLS

suppression of agonist-induced vocalization (NK-1 receptor; 0.1 mg/kg oral, 7 hours after administration): significantly active | inhibitory activity on vocalization (NK-1 receptor; at and below 0.1 mg/kg): retains significant inhibitory activity | inhibition of agonist-induced vocalization (NK-1 receptor; oral, 10, 1.0, 0.1 and 0.05 mg/kg (each p<0.001)): significant inhibition | duration of activity (NK-1 receptor; oral, guinea pig): exceeds 7 hours | minimum effective dose (MED), inhibition of vocalization (NK-1 receptor; oral, guinea pig): 0.025 mg/kg | inhibition at NK-3 receptor (NK-3 receptor): no significant inhibition
Structure (SMILES): O=C(c1ccccc1Cl)c1cccnc1-c1nnn(Cc2cc(C(F)(F)F)cc(C(F)(F)F)c2)c1-c1ccncc1 [Tradipitant, {2-[1-(3,5-bistrifluoromethylbenzyl)-5-pyridin-4-yl-1H-[1,2,3]triazol-4-yl]-pyridin-3-yl}-(2-chlorophenyl)-methanone]
tolerability ([1]; 85 mg bid, confirms prior studies' findings): well tolerated | CGI-S, change from baseline [1, 3]: −1.13 | DD-% Nausea Free Days, change from baseline [1, 3]: 28.8% | DD-Nausea (Daily Diary Nausea Score, 0-5), change from baseline [1, 3]: −1.25 | GCSI, change from baseline [1, 3]: −0.93 | PAGI-SYM, change from baseline [1, 3]: −0.93 | PGI-C [1, 3]: 2.66 | DD-Nausea (Daily Diary Nausea Score, 0-5), change from baseline ([1]; ITT Population, 85 mg bid, n = 73, listed as tradipitant): −1.2 | CGI-S, change from baseline [1, 4]: −1.24 | DD-% Nausea Free Days, change from baseline [1, 4]: 32.3% | DD-Nausea (Daily Diary Nausea Score, 0-5), change from baseline [1, 4]: −1.43 | GCSI, change from baseline [1, 4]: −1.10 | PAGI-SYM, change from baseline [1, 4]: −1.06 | PGI-C [1, 4]: 2.52 | DD-Nausea (Daily Diary Nausea Score, 0-5), change from baseline ([1]; Vomiting Population, 85 mg bid, n = 58, listed as tradipitant): −1.4 | Daily Diary Nausea Weekly Average, Effect size estimate ([1]; Week 1 vs Week 2): 0.314 | Daily Diary Nausea Weekly Average, Effect size estimate ([1]; Week 1 vs Week 3): 0.5556 | Daily Diary Nausea Weekly Average, Effect size estimate ([1]; Week 1 vs Week 4): 0.592 | Daily Diary Nausea Weekly Average, Effect size estimate ([1]; Week 2 vs Week 3): 0.2416 | Daily Diary Nausea Weekly Average, Effect size estimate ([1]; Week 2 vs Week 4): 0.278 | Daily Diary Nausea Weekly Average, Effect size estimate ([1]; Week 3 vs Week 4): 0.03647 | mean daily nausea score ([2]; 0 to 5 scale, open label 85 mg bid for 1 to 8 weeks, 64 patients): about 1.63 | median daily nausea score ([2]; 0 to 5 scale, open label extension 85 mg bid, 64 subjects): 1.35 | change of average percentage of nausea-free days compared to pre-treatment ([2]; 85 mg bid): doubled or greater | reduction of average daily nausea scores compared to pre-treatment ([2]; 85 mg bid): reduced by approximately one half | mean percentage of days nausea-free ([2]; open label extension 85 mg bid): 45.91% | median percentage of nausea-free days ([2]; open label extension 85 mg bid): 49.11%
